US20240109930A1, “TRIAZOLYL-METHYL SUBSTITUTED ALPHA-D-GALACTOPYRANOSIDE DERIVATIVES” (Idorsia Pharmaceuticals Ltd, priority 2021, published 2024)

Assays:
human Gal-3 (hGal-3) = human Gal-3 (hGal-3) (Homo sapiens (Human), UniProt P17931); assay: Competitive binding assay: biotinylated hGal-3 binding to microplate-adsorbed asialofetuin (ASF); conditions: IC50 values from several measurements given as geomean
How it was run: (§1)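 Biotinylated hGal-3 or hGal-1 (preferably cysteine-free Cys→Ser mutant), 300–1000 ng/mL, competes with compound for ASF-coated wells for 3 h at 4 °C. Bound lectin detected with streptavidin-peroxidase (80 ng/mL, 1 h, 4 °C) and ABTS by absorbance; IC50 reported as geomean of several runs.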

human Gal-1 (hGal-1) = human Gal-1 (hGal-1) (Homo sapiens, UniProt P09382, C131S/C17S/C43S/C61S/C89S); assay: Competitive binding assay: biotinylated hGal-1 binding to microplate-adsorbed asialofetuin (ASF); conditions: IC50 values from several measurements given as geomean
How it was run: as §1

Sequence of human Gal-3 (hGal-3) (P17931 whole entry): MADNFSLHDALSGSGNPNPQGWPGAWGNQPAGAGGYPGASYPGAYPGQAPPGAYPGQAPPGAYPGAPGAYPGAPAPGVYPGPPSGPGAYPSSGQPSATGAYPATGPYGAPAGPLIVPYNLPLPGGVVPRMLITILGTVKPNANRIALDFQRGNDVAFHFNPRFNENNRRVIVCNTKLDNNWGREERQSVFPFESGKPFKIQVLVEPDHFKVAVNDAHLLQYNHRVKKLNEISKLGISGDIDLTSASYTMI

| IC50 (human Gal-3 (hGal-3)) | IC50 (human Gal-1 (hGal-1)) | Compound |
| --- | --- | --- |
| 50 nM | 470 nM | CCC1(c2cn(C[C@H]3O[C@H](CO)[C@H](O)[C@H](n4cc(-c5ccc(F)c(F)c5F)nn4)[C@H]3OC)nn2)COC1 [Ex 3.2.38.] |
| 50 nM | 1820 nM | CO[C@@H]1[C@@H](n2cc(-c3ccc(Br)c(F)c3F)nn2)[C@@H](O)[C@@H](CO)O[C@@H]1Cc1cn([C@]2(C)C[C@H](O)C2)nn1 [Ex 4.1.19.] |
| 50 nM | 3250 nM | CO[C@@H]1[C@@H](n2cc(-c3ccc(Cl)c(F)c3F)nn2)[C@@H](O)[C@@H](CO)O[C@@H]1Cc1cn(C23CC(C2)C3)nn1 [Ex 2.1.12.] |
| 40 nM | 2970 nM | CO[C@@H]1[C@@H](n2cc(-c3ccc(C)c(F)c3F)nn2)[C@@H](O)[C@@H](CO)O[C@@H]1Cn1cc(C2(C)COC2)nn1 [Ex 1.2.6.] |
| 70 nM | 4500 nM | CO[C@@H]1[C@@H](n2cc(-c3ccc(C)c(F)c3F)nn2)[C@@H](O)[C@@H](CO)O[C@@H]1Cn1cc(C2(O)CCOCC2)nn1 [Ex 1.2.35.] |
| 100 nM | 4110 nM | CO[C@@H]1[C@@H](n2cc(-c3ccc(Br)c(F)c3F)nn2)[C@@H](O)[C@@H](CO)O[C@@H]1Cn1cc(C2(O)CCCC2)nn1 [Ex 4.2.33.] |
| 50 nM | 3690 nM | CO[C@@H]1[C@@H](n2cc(-c3ccc(C)c(F)c3F)nn2)[C@@H](O)[C@@H](CO)O[C@@H]1Cc1cn(C2CC3(COC3)C2)nn1 [Ex 1.1.16.] |
| 60 nM | 2100 nM | CO[C@@H]1[C@@H](n2cc(-c3ccc(Cl)c(F)c3F)nn2)[C@@H](O)[C@@H](CO)O[C@@H]1Cc1cn(C23CC(OC)(C2)C3)nn1 [Ex 2.1.29.] |
| 70 nM | 4960 nM | CO[C@@H]1[C@@H](n2cc(-c3ccc(Br)c(F)c3F)nn2)[C@@H](O)[C@@H](CO)O[C@@H]1Cc1cn([C@H]2CCC[C@@H]2F)nn1 (relative stereo) [Example 4.1.79.CD, (2R,3R,4S,5R,6R)-4-(4-(4-bromo-2,3-difluorophenyl)-1H-1,2,3-triazol-1-yl)-6-((1-((1S*,2S*)-2-fluorocyclopentyl)-1H-1,2,3-triazol-4-yl)methyl)-2-(hydroxymethyl)-5-methoxytetrahydro-2H-pyran-3-ol] |
| 30 nM | 700 nM | CO[C@@H]1[C@@H](n2cc(-c3ccc(Cl)c(F)c3F)nn2)[C@@H](O)[C@@H](CO)O[C@@H]1Cc1cn(C2(C(F)(F)F)CC2)nn1 [Ex 2.1.54., (2R,3R,4S,5R,6R)-4-(4-(4-Chloro-2,3-difluorophenyl)-1H-1,2,3-triazol-1-yl)-2-(hydroxymethyl)-5-methoxy-6-((1-(1-(trifluoromethyl)cyclopropyl)-1H-1,2,3-triazol-4-yl)methyl)tetrahydro-2H-pyran-3-ol] |
| 40 nM | 840 nM | COCC1(n2cc(C[C@H]3O[C@H](CO)[C@H](O)[C@H](n4cc(-c5ccc(C)c(F)c5F)nn4)[C@H]3OC)nn2)COC1 [Ex 1.1.21.] |
| 40 nM | 6460 nM | CO[C@@H]1[C@@H](n2cc(-c3ccc(C)c(F)c3F)nn2)[C@@H](O)[C@@H](CO)O[C@@H]1Cc1cn([C@@H]2CCC[C@H]2O)nn1 [Ex 1.1.2.] |
| 100 nM | 5490 nM | CO[C@@H]1[C@@H](n2cc(-c3ccc(Br)c(F)c3F)nn2)[C@@H](O)[C@@H](CO)O[C@@H]1Cn1cc(C(C)(C)O)nn1 [Ex 4.2.34.] |
| 30 nM | 1370 nM | CO[C@@H]1[C@@H](n2cc(-c3ccc(Cl)c(F)c3F)nn2)[C@@H](O)[C@@H](CO)O[C@@H]1Cc1cn(C2(C)CC(F)C2)nn1 (stereo partly drawn) [Example 2.1.47.A, (2R,3R,4S,5R,6R)-4-(4-(4-chloro-2,3-difluorophenyl)-1H-1,2,3-triazol-1-yl)-6-((1-((1S,3S)-3-fluoro-1-methylcyclobutyl)-1H-1,2,3-triazol-4-yl)methyl)-2-(hydroxymethyl)-5-methoxytetrahydro-2H-pyran-3-ol] |
| 30 nM | 1480 nM | CO[C@@H]1[C@@H](n2cc(-c3ccc(Br)c(F)c3F)nn2)[C@@H](O)[C@@H](CO)O[C@@H]1Cc1cn(C2(C(F)(F)F)CCC2)nn1 [Ex 4.1.55., (2R,3R,4S,5R,6R)-4-(4-(4-bromo-2,3-difluorophenyl)-1H-1,2,3-triazol-1-yl)-2-(hydroxymethyl)-5-methoxy-6-((1-(1-(trifluoromethyl)cyclobutyl)-1H-1,2,3-triazol-4-yl)methyl)tetrahydro-2H-pyran-3-ol] |
| 40 nM | 1620 nM | CO[C@@H]1[C@@H](n2cc(-c3ccc(Cl)c(F)c3F)nn2)[C@@H](O)[C@@H](CO)O[C@@H]1Cc1cn([C@@H]2COC[C@@H]2F)nn1 (single isomer, unassigned) [Example 2.1.74.B, (2R,3R,4S,5R,6R)-4-(4-(4-chloro-2,3-difluorophenyl)-1H-1,2,3-triazol-1-yl)-6-((1-((3R*,4R*)-4-fluorotetrahydrofuran-3-yl)-1H-1,2,3-triazol-4-yl)methyl)-2-(hydroxymethyl)-5-methoxytetrahydro-2H-pyran-3-ol] |
| 60 nM | 1800 nM | CO[C@@H]1[C@@H](n2cc(-c3ccc(Cl)c(F)c3F)nn2)[C@@H](O)[C@@H](CO)O[C@@H]1Cc1cn([C@@H]2COCC[C@H]2F)nn1 [Example 2.1.65.A, (2R,3R,4S,5R,6R)-4-(4-(4-chloro-2,3-difluorophenyl)-1H-1,2,3-triazol-1-yl)-6-((1-((3R,4R)-4-fluorotetrahydro-2H-pyran-3-yl)-1H-1,2,3-triazol-4-yl)methyl)-2-(hydroxymethyl)-5-methoxytetrahydro-2H-pyran-3-ol] |
| 40 nM | 180 nM | CO[C@@H]1[C@@H](n2cc(-c3ccc(F)c(F)c3F)nn2)[C@@H](O)[C@@H](CO)O[C@@H]1Cc1cn(C2(C(F)(F)F)CCC2)nn1 [Ex 3.1.55., (2R,3R,4S,5R,6R)-2-(hydroxymethyl)-5-methoxy-6-((1-(1-(trifluoromethyl)cyclobutyl)-1H-1,2,3-triazol-4-yl)methyl)-4-(4-(2,3,4-trifluorophenyl)-1H-1,2,3-triazol-1-yl)tetrahydro-2H-pyran-3-ol] |
| 60 nM | 3940 nM | CO[C@@H]1[C@@H](n2cc(-c3ccc(Cl)c(F)c3F)nn2)[C@@H](O)[C@@H](CO)O[C@@H]1Cc1cn([C@@H]2COC[C@H]2F)nn1 (single isomer, unassigned) [Example 2.1.74.C, (2R,3R,4S,5R,6R)-4-(4-(4-chloro-2,3-difluorophenyl)-1H-1,2,3-triazol-1-yl)-6-((1-((3R*,4S*)-4-fluorotetrahydrofuran-3-yl)-1H-1,2,3-triazol-4-yl)methyl)-2-(hydroxymethyl)-5-methoxytetrahydro-2H-pyran-3-ol] |
| 50 nM | 900 nM | COCC1(n2cc(C[C@H]3O[C@H](CO)[C@H](O)[C@H](n4cc(-c5ccc(Cl)c(F)c5F)nn4)[C@H]3OC)nn2)COC1 [Ex 2.1.21.] |
| 20 nM | 910 nM | CO[C@@H]1[C@@H](n2cc(-c3ccc(Cl)c(F)c3F)nn2)[C@@H](O)[C@@H](CO)O[C@@H]1Cc1cn(C2COCC2(F)F)nn1 (mixture of isomers) [Example 2.1.90.B] |
| 80 nM | 7710 nM | CO[C@@H]1[C@@H](n2cc(-c3ccc(C)c(F)c3F)nn2)[C@@H](O)[C@@H](CO)O[C@@H]1Cn1cc(C2(O)CC2)nn1 [Ex 1.2.36.] |
| 10 nM | 450 nM | CO[C@@H]1[C@@H](n2cc(-c3ccc(Cl)c(F)c3F)nn2)[C@@H](O)[C@@H](CO)O[C@@H]1Cc1cn([C@@H]2COC[C@@H]2F)nn1 (single isomer, unassigned) [Example 2.1.74.A, (2R,3R,4S,5R,6R)-4-(4-(4-chloro-2,3-difluorophenyl)-1H-1,2,3-triazol-1-yl)-6-((1-((3R*,4R*)-4-fluorotetrahydrofuran-3-yl)-1H-1,2,3-triazol-4-yl)methyl)-2-(hydroxymethyl)-5-methoxytetrahydro-2H-pyran-3-ol] |
| 70 nM | 260 nM | CO[C@@H]1[C@@H](n2cc(-c3ccc(F)c(F)c3F)nn2)[C@@H](O)[C@@H](CO)O[C@@H]1Cc1cn(C2(CF)CCC2)nn1 [Ex 3.1.40., (2R,3R,4S,5R,6R)-6-((1-(1-(fluoromethyl)cyclobutyl)-1H-1,2,3-triazol-4-yl)methyl)-2-(hydroxymethyl)-5-methoxy-4-(4-(2,3,4-trifluorophenyl)-1H-1,2,3-triazol-1-yl)tetrahydro-2H-pyran-3-ol] |
| 10 nM | 100 nM | CO[C@@H]1[C@@H](n2cc(-c3ccc(Cl)c(F)c3F)nn2)[C@@H](O)[C@@H](CO)O[C@@H]1Cc1cn(C2CCOCC2(F)F)nn1 (single isomer, unassigned) [Example 2.1.89.A] |
| 40 nM | 3050 nM | CO[C@@H]1[C@@H](n2cc(-c3ccc(Cl)c(F)c3F)nn2)[C@@H](O)[C@@H](CO)O[C@@H]1Cc1cn([C@H]2CCCC[C@H]2F)nn1 [Example 2.1.81.B, (2R,3R,4S,5R,6R)-4-(4-(4-chloro-2,3-difluorophenyl)-1H-1,2,3-triazol-1-yl)-6-((1-((1S,2R)-2-fluorocyclohexyl)-1H-1,2,3-triazol-4-yl)methyl)-2-(hydroxymethyl)-5-methoxytetrahydro-2H-pyran-3-ol] |
| 20 nM | 810 nM | CO[C@@H]1[C@@H](n2cc(-c3ccc(Cl)c(F)c3F)nn2)[C@@H](O)[C@@H](CO)O[C@@H]1Cc1cn(C2(CF)CC2(F)F)nn1 (stereo partly drawn) [Ex 2.1.76., (2R,3R,4S,5R,6R)-4-(4-(4-chloro-2,3-difluorophenyl)-1H-1,2,3-triazol-1-yl)-6-((1-(2,2-difluoro-1-(fluoromethyl)cyclopropyl)-1H-1,2,3-triazol-4-yl)methyl)-2-(hydroxymethyl)-5-methoxytetrahydro-2H-pyran-3-ol] |
